Data: patent US20240166646A1, “1H-PYRROLO[2,3-B]PYRIDINE DERIVATIVES AS BCL-2 INHIBITORS FOR THE TREATMENT OF NEOPLASTIC AND AUTOIMMUNE DISEASES” (Newave Pharmaceutical Inc., priority 2020, published 2024)
Where a name gives a salt, the structure may show the parent alone.

Legend:
[1] = system: BCL-2-dependent acute lymphoblastic leukemia (ALL) cell line RS4; 11 with G101V mutation; assay: In vitro anti-proliferation assay (ATPlite) in RS4; 11 with G101V mutation; assay type: cell-based; details: about 72 hours incubation, medium with 5% FBS or 10% normal human serum, ATPlite luminescence
Outline: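 About 1×10^4 cells per well exposed to a compound dose range for about 72 h in medium with 5% FBS or 10% normal human serum. ATP content read by ATPlite luminescence after lysis. IC50 derived from dose-response.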

Bcl-2 = Bcl-2 (Homo sapiens (Human), UniProt P10415); assay: Bcl-2 competition binding (fluorescence polarization) assay; details: fluorescein labeled BH3 peptide 15 nM, Bcl-2 protein 30 nM, 3 hours of incubation at room temperature
Sequence of Bcl-2 (P10415 whole entry): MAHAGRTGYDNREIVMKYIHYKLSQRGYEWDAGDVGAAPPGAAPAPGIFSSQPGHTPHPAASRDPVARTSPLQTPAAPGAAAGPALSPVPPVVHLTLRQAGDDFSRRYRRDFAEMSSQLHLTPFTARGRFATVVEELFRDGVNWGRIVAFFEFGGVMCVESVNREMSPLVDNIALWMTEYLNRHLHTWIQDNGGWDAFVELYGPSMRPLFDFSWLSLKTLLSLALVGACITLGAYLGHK
Outline: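 Fluorescence polarization competition of 15 nM labeled 23-mer BH3 peptide with 30 nM purified Bcl-2, in 20 mM Hepes pH 7.0, 50 mM KCl, 5 mM MgCl2, 20 mM Na2MoO4, 0.1 mg/ml bovine gamma globulin, 0.01% NP40. Compounds 20 μM to 2 nM final; mP read after 3 h at room temperature, background-subtracted. IC50 from sigmoidal dose-response fit.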

| Structure (SMILES) | IC50 ([1]; RS4-11) [nM] | IC50 (Bcl-2) [nM] | IC50 [1] [nM] |
| --- | --- | --- | --- |
| CC(C)Oc1ccccc1[C@@H]1CCCN1C1CC2(CCN(c3ccc(C(=O)NS(=O)(=O)c4ccc(NCC5CCOCC5)c([N+](=O)[O-])c4)c(N4c5cc6cc[nH]c6nc5O[C@@H]5COC[C@@H]54)c3)CC2)C1 [Example 55, 4-(2-((S)-2-(2-isopropoxyphenyl)pyrrolidin-1-yl)-7-azaspiro[3.5]nonan-7-yl)-N-((3-nitro-4-(((tetrahydro-2H-pyran-4-yl)methyl)amino)phenyl)sulfonyl)-2-((5aS,8aS)-5a,6,8,8a-tetrahydrofuro[3,4-b]pyrrolo[3′,2′:5,6]pyrido[3,2-e][1,4]oxazin-5(1H)-yl)benzamide] | 392 | 0.608 |  |
| CC(C)Oc1ccccc1[C@@H]1CCCN1C1CC2(CCN(c3ccc(C(=O)NS(=O)(=O)c4ccc(NCC5CCOCC5)c([N+](=O)[O-])c4)c(N4c5cc6cc[nH]c6nc5O[C@H]5CCOC[C@@H]54)c3)CC2)C1 [Example 58, 4-(2-((S)-2-(2-isopropoxyphenyl)pyrrolidin-1-yl)-7-azaspiro[3.5]nonan-7-yl)-N-((3-nitro-4-(((tetrahydro-2H-pyran-4-yl)methyl)amino)phenyl)sulfonyl)-2-((5aS,9aS)-5a,8,9,9a-tetrahydro-6H-pyrano[4,3-b]pyrrolo[3′,2′:5,6]pyrido[3,2-e][1,4]oxazin-5(1H)-yl)benzamide] | 188 | 0.324 |  |
| CC(C)Oc1ccccc1[C@@H]1CCCN1C1CC2(CCN(c3ccc(C(=O)NS(=O)(=O)c4ccc(NCC5CCOCC5)c([N+](=O)[O-])c4)c(N4c5cc6cc[nH]c6nc5O[C@@H]5CCOC[C@H]54)c3)CC2)C1 [Example 59, 4-(2-((S)-2-(2-isopropoxyphenyl)pyrrolidin-1-yl)-7-azaspiro[3.5]nonan-7-yl)-N-((3-nitro-4-(((tetrahydro-2H-pyran-4-yl)methyl)amino)phenyl)sulfonyl)-2-((5aR,9aR)-5a,8,9,9a-tetrahydro-6H-pyrano[4,3-b]pyrrolo[3′,2′:5,6]pyrido[3,2-e][1,4]oxazin-5(1H)-yl)benzamide] | 124 | 0.101 |  |
| CC(C)c1cc(F)ccc1[C@@H]1CCCN1C1CC2(CCN(c3ccc(C(=O)NS(=O)(=O)c4ccc(NCC5CCOCC5)c([N+](=O)[O-])c4)c(N4c5cc6cc[nH]c6nc5O[C@@H]5COC[C@H]54)c3)CC2)C1 [Example 60, 2-[(11R,15S)-13,16-dioxa-2,4,10-triazatetracyclo[7.7.0.0^{3,7}.0^{11,15}]hexadeca-1(9),2,5,7-tetraen-10-yl]-4-{2-[(2S)-2-(4-fluoro-2-isopropylphenyl)pyrrolidin-1-yl]-7-azaspiro[3.5]nonan-7-yl}-N-{3-nitro-4-[(oxan-4-ylmethyl)amino]benzenesulfonyl}benzamide] |  | 0.341 | 62.4 |
| Cc1ccccc1C1CC(C)(C)CN1C1CC2(CCN(c3ccc(C(=O)NS(=O)(=O)c4ccc(NCC5CCOCC5)c([N+](=O)[O-])c4)c(N4c5cc6cc[nH]c6nc5O[C@@H]5COC[C@H]54)c3)CC2)C1 (stereo partly drawn) [Example 61, 4-{2-[4,4-dimethyl-2-(2-methylphenyl)pyrrolidin-1-yl]-7-azaspiro[3.5]nonan-7-yl}-2-[(11R,15S)-13,16-dioxa-2,4,10-triazatetracyclo[7.7.0.0^{3,7}.0^{11,15}]hexadeca-1(9),2,5,7-tetraen. 10-yl]-N-{3-nitro-4-[(oxan-4-ylmethyl)amino]benzenesulfonyl}benzamide] |  | 0.707 | 130 |
| CC(C)Oc1ccccc1[C@@H]1CCCN1C1CC2(CCN(c3ccc(C(=O)NS(=O)(=O)c4ccc(NCC5CCOCC5)c([N+](=O)[O-])c4)c(N4c5cc6cc[nH]c6nc5O[C@H]5COCC[C@@H]54)c3)CC2)C1 [Example 62, 4-(2-((S)-2-(2-isopropoxyphenyl)pyrrolidin-1-yl)-7-azaspiro[3.5]nonan-7-yl)-N-((3-nitro-4-(((tetrahydro-2H-pyran-4-yl)methyl)amino)phenyl)sulfonyl)-2-((5aS,9aR)-6,7,9,9a-tetrahydro. 1H-pyrano[3,4-b]pyrrolo[3′,2′:5,6]pyrido[3,2-e][1,4]oxazin-5(5aH)-yl)benzamide hydrochloride] |  | 0.41 | 121 |
| CC(C)c1ccsc1[C@@H]1CCCN1C1CC2(CCN(c3ccc(C(=O)NS(=O)(=O)c4ccc(NCC5CCOCC5)c([N+](=O)[O-])c4)c(N4c5cc6cc[nH]c6nc5O[C@@H]5COC[C@H]54)c3)CC2)C1 [Example 63, 4-(2-((S)-2-(3-isopropylthiophen-2-yl)pyrrolidin-1-yl)-7-azaspiro[3.5]nonan-7-yl)-N-((3-nitro-4-(((tetrahydro-2H-pyran-4-yl)methyl)amino)phenyl)sulfonyl)-2-((5aR,8aS)-5a,6,8,8a-tetrahydrofuro[3,4-b]pyrrolo[3′,2′:5,6]pyrido[3,2-e][1,4]oxazin-5(1H)-yl)benzamide hydrochloride] | 49.6 | 0.314 |  |
| CC(C)Oc1ccccc1[C@@H]1CCCN1C1CC2(CCN(c3ccc(C(=O)NS(=O)(=O)c4ccc(NCC5CCOCC5)c([N+](=O)[O-])c4)c(N4c5cc6cc[nH]c6nc5O[C@H]5COCC[C@H]54)c3)CC2)C1 [Example 64, 2-[(3R,8R)-2,5-dioxa-9,15,17-triazatetracyclo[8.7.0.0^{3,8}.0^{12,16}]heptadeca-1(10),11,13,16-tetraen-9-yl]-4-{2-[(2S)-2-(2-isopropoxyphenyl)pyrrolidin-1-yl]-7-azaspiro[3.5]nonan-7-yl}-N-{3-nitro-4-[(oxan-4-ylmethyl)amino]benzenesulfonyl}benzamide] |  | 0.341 | 62.4 |
| Cc1ccccc1[C@@H]1COCCCN1C1CC2(CCN(c3ccc(C(=O)NS(=O)(=O)c4ccc(NCC5CCOCC5)c([N+](=O)[O-])c4)c(N4c5cc6cc[nH]c6nc5O[C@@H]5COC[C@H]54)c3)CC2)C1 [Example 65, N-((3-nitro-4-(((tetrahydro-2H-pyran-4-yl)methyl)amino)phenyl)sulfonyl)-2-((5aR,8aS)-5a,6,8,8a-tetrahydrofuro[3,4-b]pyrrolo[3′,2′:5,6]pyrido[3,2-e][1,4]oxazin-5(1H)-yl)-4-(2-((R)-3-(o-tolyl)-1,4-oxazepan-4-yl)-7-azaspiro[3.5]nonan-7-yl)benzamide] | > 1000 | 0.425 |  |
| Cc1ccccc1[C@H]1COCCCN1C1CC2(CCN(c3ccc(C(=O)NS(=O)(=O)c4ccc(NCC5CCOCC5)c([N+](=O)[O-])c4)c(N4c5cc6cc[nH]c6nc5O[C@@H]5COC[C@H]54)c3)CC2)C1 [Example 66, 2-[(11R,15S)-13,16-dioxa-2,4,10-triazatetracyclo[7.7.0.0^{3,7}.0^{11,15}]hexadeca-1(9),2,5,7-tetraen-10-yl]-4-{2-[(3S)-3-(2-methylphenyl)-1,4-oxazepan-4-yl]-7-azaspiro[3.5]nonan-7-yl}-N-{3-nitro-4-[(oxan-4-ylmethyl)amino]benzenesulfonyl}benzamide] |  | 0.564 | 296 |
